Measurements: the METLIN SMRT retention time set (Domingo-Almenara et al. 2019)

Test: gradient 5% acetonitrile 3 min, to 50% in 2 min, to 85% in 15 min, held 3 min, 100 µL/min
Conditions: column: Zorbax Extend-C18 2.1 x 50 mm; eluents: water / acetonitrile, 0.1% formic acid
Procedure, shortened: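 Retention times come from adduct peaks that were picked computationally and then checked by hand. The standards, pure and pooled in mixtures of ~100 molecules, were run on a Zorbax Extend-C18 column (2.1 × 50 mm, 1.8 μm) at 100 μL/min with water and acetonitrile, each with 0.1% formic acid. Detection was by quadrupole time-of-flight mass spectrometry in positive and negative ionization mode, with a dead volume of 40 μL and a dwell volume of 900 μL.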

SMILES: CCN1C(=O)COc2ccc(-c3noc(-c4cc(OC)cc(OC)c4)n3)cc21
- RP-LC retention time: 1040 s

SMILES: O=C(Nc1nc(-c2nc3ccccc3s2)cs1)c1c(F)cccc1F
- RP-LC retention time: 920 s

SMILES: Cc1oc(C2CCN(C(=O)Cc3c(F)cccc3Cl)CC2)nc1C(=O)N(C)C
- RP-LC retention time: 747 s

SMILES: CCOc1ccccc1CNC(=O)C1CCN(S(=O)(=O)c2ccc3c(c2)sc(=O)n3C)CC1
- RP-LC retention time: 878 s

SMILES: CC(C)(C)c1cnc(CSc2cnc(NC(=O)C3CCNCC3)s2)o1
- RP-LC retention time: 677 s

SMILES: O=C(NC1CCS(=O)(=O)C1)C1Cn2cccc2C(=O)N1Cc1ccccc1 (stereo not given)
- RP-LC retention time: 652 s

SMILES: c1ccc(Sc2ncccn2)nc1
- RP-LC retention time: 662 s

SMILES: CCn1cc(-c2nc(C(=O)Nc3cc(OC)ccc3OC)cs2)c2cccnc21
- RP-LC retention time: 1170 s

SMILES: CCOc1ccccc1CNC(=O)C1CCCN(c2ccc(=O)n(-c3ccc(CC)cc3)n2)C1 (stereo not given)
- RP-LC retention time: 978 s

SMILES: CCOc1ccc(N2C=C(C(=O)N3CCOCC3)S(=O)(=O)c3ccc(F)cc32)cc1
- RP-LC retention time: 845 s

SMILES: COc1ccc(CN2C[C@@H]3C(=O)N(CCCN4CCCC4=O)C(=O)[C@@H]3C2)c(OC)c1
- RP-LC retention time: 598 s

SMILES: Cn1nc(-c2nc(C3CC3)no2)c2c1CCN(C(=O)c1ccc(F)c(Cl)c1)C2
- RP-LC retention time: 900 s

SMILES: CC(C)c1ccc(-c2ccc(=O)n(CCc3nc(-c4ccc5c(c4)OCO5)no3)n2)cc1
- RP-LC retention time: 1140 s

SMILES: COc1ccc(CNC(=O)c2cc3sccc3n2Cc2ccc(F)cc2)cc1
- RP-LC retention time: 1080 s

SMILES: O=C(NCCc1ccccc1)Nc1ccccc1NC(=O)c1ccsc1
- RP-LC retention time: 796 s

SMILES: N#CC1CC(c2ccccc2)Nc2cc(Cl)ccc2N1 (stereo not given)
- RP-LC retention time: 912 s

SMILES: COc1ccc(-c2nnc(-c3ccccc3)o2)cc1S(N)(=O)=O
- RP-LC retention time: 716 s

SMILES: Cc1cc(-c2nnc(C3CCC3)o2)c(C)n1CC(=O)NCc1ccccc1F
- RP-LC retention time: 858 s

SMILES: Cc1ccc(S(=O)(=O)c2ccc(N3CCN(c4ccccn4)CC3)nn2)cc1C
- RP-LC retention time: 657 s

SMILES: Cc1c(CC(=O)N2CCC(C(N)=O)CC2)c(=O)oc2cc3occ(-c4ccc(F)cc4)c3cc12
- RP-LC retention time: 768 s

SMILES: Cc1ccc(C)c(N2CCN(S(=O)(=O)c3c(C)sc(C)c3-c3cc(C)[nH]n3)CC2)c1
- RP-LC retention time: 1150 s

SMILES: COc1ccc(NS(=O)(=O)c2cc3n(c2)CCN(CC(C)C)C3=O)cc1
- RP-LC retention time: 745 s

SMILES: CNC(=O)c1cc(C)nc2ccc(C)cc12
- RP-LC retention time: 561 s

SMILES: CCOC(=O)N1CCN(CC(O)COc2ccc(Cl)cc2Cl)CC1 (stereo not given)
- RP-LC retention time: 589 s

SMILES: COCc1cn(C2CN(C(=O)c3ccc(OC)nc3)C2)nn1
- RP-LC retention time: 610 s

SMILES: COc1ccc(-c2nc3ncccn3c2NCc2ccccc2)cc1
- RP-LC retention time: 717 s

SMILES: Cc1ccc(-c2noc(C3CCCN3C(=O)c3ccc(C(C)(C)C)cc3)n2)cc1 (stereo not given)
- RP-LC retention time: 1280 s

SMILES: COCCNc1nc(-c2ccc([N+](=O)[O-])cc2)nc2ccccc12
- RP-LC retention time: 696 s

SMILES: COc1ccc(NS(=O)(=O)/C=C/c2ccccc2)cc1N1CCCC1=O
- RP-LC retention time: 721 s

SMILES: COc1cccc(-c2nc(Cn3ccn4nc(-c5ccc(F)cc5)cc4c3=O)c(C)o2)c1OC
- RP-LC retention time: 1080 s

SMILES: Cc1ccc(-n2c(N3CCCC(C(=O)NCC(C)C)C3)nc3ccsc3c2=O)cc1 (stereo not given)
- RP-LC retention time: 847 s

SMILES: CCCc1cc(N2CCN(C(=O)C(C)Oc3ccccc3)CC2)nc2nnc(C)n12 (stereo not given)
- RP-LC retention time: 656 s

SMILES: Cc1ccc(C(=O)NCc2cnoc2-c2ccc(F)cc2)cn1
- RP-LC retention time: 665 s

SMILES: COc1cccc(NC(=O)N2CCC3(CC2)NC(=O)c2ccccc2O3)c1
- RP-LC retention time: 745 s

SMILES: CC(C)=C1C(=O)Nc2ccc(S(=O)(=O)N3CCN(c4ccccn4)CC3)cc21
- RP-LC retention time: 612 s

SMILES: O=C(Cn1cnc2c(sc3nc(-c4ccccc4)ccc32)c1=O)Nc1ccc(F)c(F)c1
- RP-LC retention time: 1040 s

SMILES: CCNc1nc(C)cc(N2CCN(S(=O)(=O)c3ccc(OC)cc3)CC2)n1
- RP-LC retention time: 677 s

SMILES: Cn1nc(-c2nc(Cc3ccccc3)no2)c2c1CCN(C(=O)C1(c3ccccc3)CC1)C2
- RP-LC retention time: 962 s

SMILES: O=C(CN1CCC(COCc2ccccc2)CC1)NCc1ccco1
- RP-LC retention time: 571 s

SMILES: O=C(CCc1ccccc1)Nc1cnn(-c2ncncc2N2CCOCC2)c1
- RP-LC retention time: 649 s

SMILES: COc1ccc(S(=O)(=O)N2CCc3nn(CC4CC4)c(=O)n3CC2)cc1Cl
- RP-LC retention time: 786 s

SMILES: CN(C)CC1(O)CCC2(CCN(C(=O)c3ccoc3)CC2)CC1
- RP-LC retention time: 570 s

SMILES: CCOC(=O)c1c(C)[nH]c(CCC(=O)NC(C)C)c1C
- RP-LC retention time: 729 s

SMILES: CC(C)n1ncc(NC(=O)Cc2ccc(Cl)cc2)c(N2CCOCC2)c1=O
- RP-LC retention time: 856 s

SMILES: CCC(=O)N1CCc2cc(C(N)=O)ccc21
- RP-LC retention time: 613 s

SMILES: COc1ccc(NS(=O)(=O)c2cc3c(s2)CCN(C(=O)C2CC2)C3)cc1Cl
- RP-LC retention time: 826 s

SMILES: Cc1ccc(NC(=O)N(C)CCc2noc(COc3ccccc3)n2)cc1
- RP-LC retention time: 892 s

SMILES: O=C(NCCc1ccccc1)C1CCCN(C(=O)c2cc(-c3ccccn3)n[nH]2)C1 (stereo not given)
- RP-LC retention time: 705 s

SMILES: O=C(Cc1ccccc1Br)NC1CCN(c2cc(-c3ccc(Cl)cc3)[nH]n2)C1 (stereo not given)
- RP-LC retention time: 831 s

SMILES: Cc1csc(-c2ccc(N3CCN(C(=O)c4ccccc4Br)CC3)nc2)n1
- RP-LC retention time: 884 s

SMILES: Cc1ccc(NC(=O)N2CCCC2c2nncn2C2CCCC2)c(C)c1 (stereo not given)
- RP-LC retention time: 692 s

SMILES: CCc1ccc(N2C(=O)CC(N3CCC(C(N)=O)CC3)C2=O)cc1 (stereo not given)
- RP-LC retention time: 593 s

SMILES: O=C(CN1CC(c2nc(-c3ncccn3)no2)C1)Nc1ccc(F)c(Cl)c1
- RP-LC retention time: 576 s

SMILES: COCc1cc(=O)n(Cc2cccc(OC)c2)c(N2CCCC2)n1
- RP-LC retention time: 764 s

SMILES: CCCCN1C(=O)CC(C(=O)OCC)=C1C
- RP-LC retention time: 892 s

SMILES: COc1ccc(N2CC(c3nc4ccccc4n3CCN3CCOCC3)CC2=O)cc1 (stereo not given)
- RP-LC retention time: 600 s

SMILES: O=C(NCCc1c[nH]c2ccccc12)C(=O)Nc1ccc2c(c1)OCCO2
- RP-LC retention time: 825 s

SMILES: CCOC(=O)N1CCN(C(=O)CSc2ncnc3c2oc2ccccc23)CC1
- RP-LC retention time: 742 s

SMILES: COc1ccc(-c2nnc(-c3ccc(OC)c(S(=O)(=O)N4CCCCCC4)c3)o2)cc1OC
- RP-LC retention time: 979 s

SMILES: Cn1nccc1C(=O)N1CCCCC1c1nncn1Cc1ccccc1 (stereo not given)
- RP-LC retention time: 665 s

SMILES: O=C(c1ccc(F)cc1)N1CCN(c2cc(-c3cccs3)[nH]n2)CC1
- RP-LC retention time: 764 s

SMILES: Cn1cc(Cl)c(C(=O)N2CCCC2c2ccccc2F)n1 (stereo not given)
- RP-LC retention time: 813 s

SMILES: O=S(=O)(c1cccs1)N1CCc2nc(-c3ccc(F)cc3)ncc2C1
- RP-LC retention time: 1030 s

SMILES: O=C(C1=Cc2ccccc2OC=C1)N1CCc2ccccc2C1
- RP-LC retention time: 1090 s

SMILES: CC(=O)Nc1ccc(S(=O)(=O)N2CCC3(CC2)Nc2cc(F)ccc2-n2cccc23)cc1
- RP-LC retention time: 967 s

SMILES: Cc1cc(C)n(-c2ccnc(N3CCc4ccccc43)n2)n1
- RP-LC retention time: 1340 s

SMILES: COc1ccc(N2CCN(c3ncccc3-c3nc(-c4ccccc4)no3)CC2)cc1
- RP-LC retention time: 1290 s

SMILES: O=C(C1CC1)N1CCc2sc(S(=O)(=O)NCc3cccc(F)c3)cc2C1
- RP-LC retention time: 805 s

SMILES: Cc1nn(-c2ccccc2)c(C)c1S(=O)(=O)N1CCC(C(=O)Nc2ccc(F)cc2)CC1
- RP-LC retention time: 948 s

SMILES: CCn1c(C(=O)NCCCOC(C)C)cc2c(-c3cccs3)nn(-c3ccccc3)c21
- RP-LC retention time: 1150 s

SMILES: CCOC(=O)C1=C(C)NC2=C(C(=O)C(C(=O)OC)C(C)C2)C1c1ccccc1OCC (stereo not given)
- RP-LC retention time: 906 s

SMILES: CCCCN(CC)CCNC(=O)C1CCC(=O)N(c2ccc(OC)cc2)C1c1ccc(F)cc1 (stereo not given)
- RP-LC retention time: 633 s

SMILES: Nc1nc(N)nc(-c2cc(Cl)ccc2Cl)n1
- RP-LC retention time: 714 s

SMILES: O=C(NCc1cccc(Br)c1)c1cn2ccccc2n1
- RP-LC retention time: 730 s

SMILES: Cc1cc2c(c(=O)n(-c3ccc(F)cc3)c(=O)n2CC(=O)Nc2ccc(C(F)(F)F)cc2)n1C
- RP-LC retention time: 942 s

SMILES: CCn1nccc1C(=O)Nc1ccc(-c2nnc3n2CCCC3)cc1
- RP-LC retention time: 1010 s

SMILES: CC(C)c1ccc(NC(=O)C(=O)NC2CC(C)(C)NC(C)(C)C2)cc1
- RP-LC retention time: 712 s

SMILES: CCCC(=O)NCCc1csc(-c2ccc(Cl)cc2)n1
- RP-LC retention time: 921 s

SMILES: Cc1ccc(NS(=O)(=O)c2cc(-c3[nH]ncc3C(=O)N3CCCC3)oc2C)c(Cl)c1
- RP-LC retention time: 741 s

SMILES: Cc1ccc(-c2ccnc3c(C(=O)NCCc4c[nH]c5ccccc45)cnn23)cc1C
- RP-LC retention time: 1070 s

SMILES: O=C(Cc1cccn1-c1cccc(Cl)c1)NCc1ccc(N2CCOCC2)cc1
- RP-LC retention time: 890 s

SMILES: Cc1nnc2ccc(-c3noc(Cc4ccc(Cl)cc4)n3)cn12
- RP-LC retention time: 868 s

SMILES: CCOc1ccc(NC(=O)C2CC(=O)N(c3ccc4c(c3)CCN4C(C)=O)C2)cc1 (stereo not given)
- RP-LC retention time: 750 s

SMILES: CCc1ccc(NC(=O)N2CCN(c3cnn4c(C)nnc4c3)CC2)cc1
- RP-LC retention time: 649 s

SMILES: CCCN(CC1CCOC1)S(=O)(=O)c1cccc(C(F)(F)F)c1 (stereo not given)
- RP-LC retention time: 1000 s

SMILES: O=C(NCc1csc(-c2ccccc2)n1)C1CCN(S(=O)(=O)c2cccc(Cl)c2)CC1
- RP-LC retention time: 962 s

SMILES: O=C(CCc1nc(C2=CCN(Cc3ccc(Cl)cc3)CC2)no1)NC1CC1
- RP-LC retention time: 890 s

SMILES: Cc1occc1-c1nnc(SC(C)C(=O)N2CCCc3ccccc32)o1 (stereo not given)
- RP-LC retention time: 981 s

SMILES: CC(CNC(=O)C1CCCN1S(=O)(=O)c1cc2c(cc1Cl)NC(=O)CO2)c1ccccc1 (stereo not given)
- RP-LC retention time: 834 s

SMILES: CCN(CC)CCCNC(=O)C(C)n1c(=O)c(C(F)(F)F)nc2cc(C)c(C)cc21 (stereo not given)
- RP-LC retention time: 740 s
